Results from patent US20220040280A1, “INHIBITORS AND USES THEREOF” (UNIVERSITY OF CANBERRA, priority 2016, published 2022).
Entries after “also recorded” stand apart in the source; their conditions may differ. Residues, ends and D or L forms follow the SMILES beside them. *: point of attachment. Myristoyl = CCCCCCCCCCCCCC(=O)*

Tests used:
[1] = target: T1, LSD1 (Homo sapiens, UniProt O60341); experiment: Nuclear LSD1 in MCF7 cells treated with LSD1 inhibitors, confocal microscopy; assay type: cell-based; conditions: MCF7 cells stimulated with PMA for 60 hours, FIGS. 28 and 29
T1 construct: endogenous in cells; host or cells: MCF7 (non-stimulated or PMA-stimulated) and MDA-MB-231 breast cancer cells
Experimental: (§1) Confocal laser scanning microscopy was performed on either MDA-MB-231 cells treated with vehicle alone or MCF7 cells treated with vehicle alone or PMA for 60 h, and subsequently treated with a test inhibitor or vehicle alone. Test inhibitors include LSD1 siRNA or LSD1 catalytic inhibitors NCD36 (2-[N-(4-phenylbenzenecarbonyl)]amino-6-(trans-2-phenylcyclopropan-1-amino)-N-(3-methylbenzyl)hexanamide hydrochloride) or pargyline (Parg). Cells were fixed with 3.7% formaldehyde and permeabilized with 2% Triton-X-100, and then probed with a primary mouse antibody to LSD1 and a primary goat antibody to SNAIL, respectively, followed by the corresponding secondary antibodies conjugated to Alexa-Fluor 488 and […], respectively. TNFI values for MDA-MB-231, non-stimulated MCF7 and stimulated MCF7 cells were calculated. Data shown represent the mean±SE for at least 20 individual cells.

[2] = target: T1, LSD1; experiment: Nuclear LSD1 in MDA-MB-231 cells treated with LSD1 inhibitors, confocal microscopy; assay type: cell-based; conditions: FIG. 30
Experimental: as §1

[3] = system: SNAIL; experiment: Nuclear SNAIL in MCF7 cells treated with LSD1 inhibitors, confocal microscopy; assay type: cell-based, human; conditions: MCF7 cells stimulated with PMA for 60 hours, FIGS. 28 and 29
Experimental: as §1

[4] = system: SNAIL; experiment: Nuclear SNAIL in MDA-MB-231 cells treated with LSD1 inhibitors, confocal microscopy; assay type: cell-based, human; conditions: FIG. 30
Experimental: as §1

[5] = system: LSD1 phosphorylated at serine 111 (LSD1s111p); experiment: LSD1s111p in MDA-MB-231 cells treated with PKC inhibitors, confocal microscopy; assay type: cell-based, human; conditions: FIG. 26
Experimental: (§2) Confocal laser scanning microscopy was performed on either MDA-MB-231 cells treated with vehicle alone or MCF7 cells treated with vehicle alone or PMA for 60 hours. To assess the effect of the PKC inhibitors, C27 (Compound 27; (R)-2-((S)-4-(3-chloro-5-fluoro-6-(1H-pyrazolo[3,4-b]pyridine-3-yl)pyridine-2-yl)piperazin-2-yl)-3-methylbutan-2-ol; see Jimenez et al. (2013) J. Med. Chem., 56(5): 1799-1810) or bisindolylmaleimide (BIM), cells were then treated with C27, BIM or vehicle. Cells were fixed with 3.7% formaldehyde and permeabilized with 2% Triton-X-100, and were then probed with primary rabbit antibody to PKC-θ and a primary mouse antibody to LSD1 or LSD1 phosphorylated at serine 111 (LSD1s111p), respectively, followed by the corresponding secondary antibody conjugated to Alexa-Fluor 488 or Alexa-Fluor 568. Total nuclear fluorescence (TNFI) values for non-stimulated and stimulated MCF7 and MDA-MB-231 cells were calculated. […] The plot-profile feature of ImageJ was used to plot the fluorescence signal intensity along a single line spanning the nucleus (n=5 lines per nucleus, 5 individual cells). The average fluorescence signal intensity for the indicated pair of antibodies was plotted for each point on the line with SE. […] The PCC was determined for each plot profile, which indicates the strength of relation between the two fluorochrome signals for at least 20 individual cells ±SE. […]

[6] = system: LSD1 phosphorylated at serine 111 (LSD1s111p); experiment: LSD1s111p in MCF7 cells treated with PKC inhibitors, confocal microscopy; assay type: cell-based, human; conditions: FIG. 26
Experimental: as §2

[7] = system: SNAIL; conditions: CTCs from metastatic breast cancer patients, in all but one patient, FIG. 17
Experimental: (§5) Cells were permeabilised by incubating with 2% Triton X-100 for 20 min. Cells were probed with either rabbit antibodies to LSD1s111p (Merck ABE1462), EGFR (AB2430), MET (ab51067), PD-L1 (sc-50298), goat antibodies to PD-L1 (sc-19091), SC-14033), (sc-19096), mouse antibodies to Cytokeratin (Miltenyi 130-090-866), CSV (Abnova H00007431-M08), vimentin (SC-6260) followed by visualisation with secondary anti mouse Alexa-Fluor 568 (A10037), secondary anti rabbit Alexa-Fluor 488 (A21206) or secondary anti goat Alexa-Fluor 633 (A21082). Cover slips were mounted on glass microscope slides with ProLong Diamond Antifade© reagent (Life Technologies). Antibody staining was localised by confocal laser scanning microscopy. Single 0.5 μm sections were obtained using a Nikon x 60 oil immersion lens on the Nikon C1 plus confocal system running NIS-Elements AR 3.2 software. […] Digital confocal images were analysed using ImageJ software (ImageJ, NIH, Bethesda, Md., USA) to determine the nuclear/cytoplasmic fluorescence ratio (Fn/c) using the equation: Fn/c=(Fn−Fb)/(Fc−Fb), where Fn is nuclear fluorescence, Fc is cytoplasmic fluorescence, and Fb is background fluorescence or the Total Nuclear Fluorescence (TNFI), the Total Cytoplasmic Fluorescence (TCFI) or Total cell fluorescence. […] Florescence intensity was also measured in a minimum of n=10 cells for each sample set. […]

[8] = target: T2, LSD1s111p (Homo sapiens, UniProt O60341); experiment: Confocal microscopy of LSD1s111p in patient circulating tumor cells; assay type: cell-based; conditions: CTCs from two metastatic breast cancer patient liquid biopsies, FIG. 16
T2 construct: endogenous in cells; host or cells: circulating tumor cells from metastatic breast cancer patient blood
Source text: (§3) Cells were probed with either rabbit antibodies to LSD1s111p (Merck ABE1462), EGFR (AB2430), MET (ab51067), PD-L1 (sc-50298), goat antibodies to PD-L1 (sc-19091), SC-14033), (sc-19096), mouse antibodies to Cytokeratin (Miltenyi 130-090-866), CSV (Abnova H00007431-M08), vimentin (SC-6260) followed by visualisation with secondary anti mouse Alexa-Fluor 568 (A10037), secondary anti rabbit Alexa-Fluor 488 (A21206) or secondary anti goat Alexa-Fluor 633 (A21082).

[9] = system: cytokeratin; conditions: CTCs from two metastatic breast cancer patient liquid biopsies, FIG. 16
Experimental: as §5

[10] = system: PD-L1; conditions: CTCs from metastatic breast cancer patients, in all but one patient, FIG. 17
Experimental: as §5

[11] = system: PD-L2; conditions: CTCs from two metastatic breast cancer patient liquid biopsies, FIG. 16
Experimental: as §5

[12] = system: EGFR; experiment: Confocal microscopy of EGFR in MDA-MB-231 cells treated with peptide inhibitors; assay type: cell-based, human; conditions: in comparison to control, FIG. 23
Experimental: (§4) MDA-MB-231 or MCF7 cells were treated with one of L1, L2 or L3 and a control. Cells were then fixed with 3.7% formaldehyde and permeabilized with 2% Triton-X-100, then probed with a primary mouse antibody against LSD1 or a primary rabbit antibody against PD-L1, EGFR or MET, followed by visualization with a secondary goat antibody to mouse or rabbit immunoglobulins conjugated to Alexa-Fluor 488. Confocal laser scanning microscopy was used to measure the Fn/c (ratio of nuclear to cytoplasmic fluorescent intensity) ratio of LSD1 with Fiji-imageJ or the total nuclear fluorescence of PD-L1, EGFR or MET. Values are plotted with significant differences indicated using the Mann-Whitney T-test, with at least 20 cells counted per sample. Representative images for each treatment are shown.

[13] = target: T3, LSD1 phosphorylated at serine 111 (LSD1s111p) (Homo sapiens, UniProt O60341); experiment: Confocal microscopy of LSD1s111p in MCF7 cells treated with peptide inhibitors; assay type: cell-based; conditions: stimulated and non-stimulated MCF7 cells, relative to control, FIG. 4
T3 construct: endogenous in cells; host or cells: MCF7 (non-stimulated or PMA-stimulated) and MDA-MB-231 breast cancer cells
Experimental: as §3, §4

[14] = system: PD-L1; experiment: Confocal microscopy of PD-L1 in MCF7 cells treated with peptide inhibitors; assay type: cell-based, human
Experimental: as §3, §4

[15] = target: T1, LSD1; experiment: LSD1 nuclear translocation in MDA-MB-231 cells, confocal microscopy; assay type: cell-based; conditions: FIG. 19 and FIG. 31
Experimental: as §4
Confocal laser scanning microscopy was performed on MDA-MB-231 cells treated with a LSD1 peptide inhibitor, L1, L2 or L3, or vehicle alone. Cells were fixed with 3.7% formaldehyde and permeabilized with 2% Triton-X-100, and then probed with a primary mouse antibody to LSD1, followed by the corresponding secondary antibody conjugated to Alexa-Fluor 488. Confocal laser scanning microscopy was used to determine the Fn/c ratio of LSD1 with image-J. Values are plotted with significant differences indicated. Data shown represent the mean±SE for at least 20 individual cells.

[16] = system: MDA-MB-231 cells; conditions: 100 μM, FIG. 21
Experimental: (§6) 5×10^4 MCF7 or MDA-MB-231 cells were seeded with 1 mL of complete DMEM in 12 well plates overnight. […] Samples were harvested by trypsinisation followed by washing with DPBS containing 2% HI-FBS. FACS staining were performed using anti-human CD44-APC, anti-human CD24-PE, Hoechst, and anti-human EpCAM antibody cocktails. Data was collected from a BD FACSLSR-II flow cytometer. Treestar FlowJo was used for data analysis.

[17] = system: MCF7 cells; conditions: PMA stimulated MCF7 cells, 50 μM and 100 μM tested, FIG. 20
Experimental: as §6

[18] = system: PD-L1; experiment: Confocal microscopy of PD-L1 in MDA-MB-231 cells treated with peptide inhibitors; assay type: cell-based, human
Experimental: as §3, §4

[19] = system: MET; experiment: Confocal microscopy of MET in MDA-MB-231 cells treated with peptide inhibitors; assay type: cell-based, human; conditions: in comparison to control, FIG. 24
Experimental: as §4

[20] = target: T3, LSD1 phosphorylated at serine 111 (LSD1s111p); experiment: Confocal microscopy of LSD1s111p in MDA-MB-231 cells treated with peptide inhibitors; assay type: cell-based; conditions: relative to control, FIG. 4
Experimental: as §3, §4

Cc1cccc(CNC(=O)C(CCCCN[C@@H]2C[C@H]2c2ccccc2)NC(=O)c2ccc(-c3ccccc3)cc2)c1.Cl (relative stereo) [NCD36, 2-[N-(4-phenylbenzenecarbonyl)]amino-6-(trans-2-phenylcyclopropan-1-amino)-N-(3-methylbenzyl)hexanamide hydrochloride]
nuclear fluorescence signal of LSD1 [1]: significantly abrogated | nuclear fluorescence signal of LSD1 [2]: significantly abrogated | nuclear fluorescence signal of SNAIL [3]: significantly abrogated | nuclear fluorescence signal of SNAIL [4]: significantly abrogated

CC(C)[C@@](C)(O)[C@@H]1CN(c2nc(-c3n[nH]c4ncccc34)c(F)cc2Cl)CCN1 [Peptide C27, (R)-2-((S)-4-(3-chloro-5-fluoro-6-(1H-pyrazolo[3,4-b]pyridine-3-yl)pyridine-2-yl)piperazin-2-yl)-3-methylbutan-2-ol]
LSD1 phosphorylation (LSD1s111p, TNFI) [5]: significantly abrogated | LSD1 phosphorylation (LSD1s111p, TNFI) [6]: significantly abrogated

C#CCN(C)Cc1ccccc1 [Pargyline, pargyline]
SNAIL expression (total cell fluorescence) [7]: significant knockdown | nuclear fluorescence signal of LSD1 [1]: significantly abrogated | expression of LSD1s111p (TCFI) [8]: significant knockdown | nuclear fluorescence signal of LSD1 [2]: significantly abrogated | expression of cytokeratin (TCFI) [9]: significant knockdown | PD-L1 expression (total cell fluorescence) [10]: significant knockdown | nuclear fluorescence signal of SNAIL [3]: significantly abrogated | nuclear fluorescence signal of SNAIL [4]: significantly abrogated | expression of PD-L2 (TCFI) [11]: significant knockdown

bisindolylmaleimide [BIM]
LSD1 phosphorylation (LSD1s111p, TNFI) [5]: significantly abrogated | LSD1 phosphorylation (LSD1s111p, TNFI) [6]: significantly abrogated

CCCCCCCCCCCCCC(=O)N[C@@H](CCCNC(=N)N)C(=O)N[C@@H](CCCNC(=N)N)C(=O)N[C@H](C(=O)N[C@@H](CO)C(=O)N[C@@H](CCCNC(=N)N)C(=O)N[C@@H](CCCNC(=N)N)C(=O)N[C@@H](CCCCN)C(=O)N[C@@H](CCCNC(=N)N)C(=O)N[C@@H](C)C(=O)N[C@@H](CCCCN)C(=O)N[C@H](C(=O)O)C(C)C)[C@@H](C)O [Peptide L1, Myristoyl-RRTSRRKRAKV-OH] (Myristoyl-RRTSRRKRAKV-OH)
EGFR nuclear expression (TNFI) [12]: significant abrogation | nuclear expression of LSD1s111p (TNFI) [13]: significantly abrogated | abrogation of nuclear PD-L1 expression ([14]; epithelial non-stimulated MCF7 cells, compared with stimulated cells): lessened | Fn/c ratio (nuclear bias) of PD-L1 ([14]; peptide treated MCF7 cells): strongly nuclear | cytoplasmic/surface expression of PD-L1 (TCFI) ([14]; stimulated MCF7 cells, FIG. 5): significantly inhibited | expression of nuclear PD-L1 (TNFI) ([14]; stimulated, mesenchymal MCF7 cells, FIG. 5): significantly abrogated | nuclear translocation of LSD1 (Fn/c) [15]: inhibited; also recorded: clearly abrogated | cancer stem cell formation [16]: significant reduction | cancer stem cell formation [17]: inhibited | cytoplasmic/surface expression of PD-L1 (TCFI) ([18]; MDA-MB-231 cells, FIG. 6): significantly inhibited | expression of nuclear PD-L1 (TNFI) ([18]; MDA-MB-231 cells, FIG. 6): significantly abrogated | PD-L1 nuclear expression ([18]; MDA-MB-231 cells, in comparison to the control, FIG. 22 (50 μM and 100 μM)): abrogated | Fn/c ratio (nuclear bias) of PD-L1 ([18]; peptide treated MDA-MB-231 cells): strongly nuclear | MET nuclear expression (TNFI) [19]: significant abrogation | nuclear expression of LSD1s111p (TNFI) [20]: significantly abrogated
